Laboratory results: patent publication US9278994B2, “Short antimicrobial lipopeptides” (Helix BioMedix Inc., priority 2012, dated 2016)
Values after ≈ are worked out from the molar mass of the structure shown. Where a SMILES comes first, the peptide text is derived from it. [ ]: non-standard residue; d: D form. The star is where a group is joined. Stearoyl = CCCCCCCCCCCCCCCCCC(=O)*; Palmitoyl = CCCCCCCCCCCCCCCC(=O)*; Myristoyl = CCCCCCCCCCCCCC(=O)*; Undecanoyl = CCCCCCCCCCC(=O)*; Lauroyl = CCCCCCCCCCCC(=O)*; Decanoyl = CCCCCCCCCC(=O)*; Octanoyl = CCCCCCCC(=O)*

Key:
C. albicans 105 = tested on: C. albicans 105
Procedure: (§1) We conducted the minimal inhibitory concentration (MIC) determination using CLSI (Clinical and Laboratory standard Institute) recommended standard protocol for antimicrobials (Methods for Dilution Antimicrobial Susceptibility Tests for Bacteria That Grow Aerobically; Approved Standard—Ninth Edition).
(§2) 2. Bacterial strains and culture conditions. E. coli UB1005, S. aureus SAP0017 (MRSA) and C. albicans 105 were grown in Mueller Hinton (MH) (Difco, BD Biosciences, MD) agar plates and broth (2 g of beef extract, 17.5 g of acid hydrolysis of casein and 1.5 g of starch per liter) at 37° C. unless otherwise indicated. Bacteria from frozen stock were subcultured onto freshly made MH agar plates prior to susceptibility testing. For P. acnes, the bacterium was grown in BBL™ Brain-Heart infusion (Becton, Dickinson & Company, Sparks Md.) broth or agar plates at 37° C. in anaerobic condition generated using a anaerobic jar and AnaeroGen™ (Oxoid, Basingstoke, Hampshire, England).
(§3) 3. […] The minimal inhibitory concentration (MIC) of each peptide was determined using modified CLSI microtiter broth dilution assay (Methods for Dilution Antimicrobial Susceptibility Tests for Bacteria That Grow Aerobically; Approved Standard—Ninth Edition). An inoculum of 10^5-10^6 colony forming units (CFU)/ml was used or 10^4 CFU/ml for yeast. The MIC value was taken as the lowest peptide concentration at which more than 90% of microbial growth was inhibited after 15 to 20 h of incubation at 37° C. For P. acnes, the incubation was kept under anaerobic condition at 37° C. for 2 weeks before MIC was determined Kill kinetics was performed using a given concentration (about 2-5-fold MIC) of peptide mixed with indicator microorganism. After appropriate dilution the cells were plated on agar plates after defined time intervals and incubated at 37° C. overnight. In the case of P. acnes an extended incubation period was required. The CFU was counted and plotted as survival of bacteria after peptide treatment over time, which indicates the effectiveness of a peptide to kill a microbe.

E. coli UB1005 = tested on: E. coli UB1005
Procedure: as §1, §2, §3

S. aureus SAP0017 (MRSA) = tested on: S. aureus SAP0017 (MRSA)
Procedure: as §1, §2, §3

P. acnes = format: cell-based, Propionibacterium acnes
Procedure: as §2, §3

MIC C. albicans (C. albicans 105) [µg/mL]	MIC E. coli (E. coli UB1005) [µg/mL]	MIC S. aureus (S. aureus SAP0017 (MRSA)) [µg/mL]	MIC P. acnes (P. acnes) [µg/mL]	Compound
>2000	>2000	>2000	>2000	CCCCCCCCCC(=O)N[C@@H](CCCCN)C(=O)N1CCC[C@@H]1C(=O)N[C@H](C(=O)O)[C@@H](C)O [HB2183, Dec-KdPT-OH] (Decanoyl-Lys-[dP]-Thr-OH)
>2000	>2000	>2000	>2000	CCCCCCCCCC(=O)N[C@@H](CCCCN)C(=O)N1CCC[C@H]1C(=O)N[C@H](C(=O)O)C(C)C [HB2185, Dec-KPV-OH] (Decanoyl-Lys-Pro-Val-OH)
>2000	>2000	>2000	>2000	CCCCCCCC(=O)N[C@@H](CCCCN)C(=O)N1CCC[C@H]1C(=O)N[C@H](C(N)=O)C(C)C [HB2188, Octanoyl-KPV-NH2] (Octanoyl-Lys-Pro-Val-NH2)
32 (≈ 0.0566 mM)	64 (≈ 0.113 mM)	16 (≈ 0.0283 mM)	1 (≈ 0.00177 mM)	CCCCCCCCCCCCCCC(=O)N[C@@H](CCCCN)C(=O)N1CCC[C@H]1C(=O)N[C@H](C(N)=O)C(C)C [HB2192, Pentadecanoyl-KPV-NH2]
16 (≈ 0.0263 mM)	>2000	16 (≈ 0.0263 mM)	1 to 2	CCCCCCCCCCCCCCCCCC(=O)N[C@@H](CCCCN)C(=O)N1CCC[C@H]1C(=O)N[C@H](C(N)=O)C(C)C [HB2194, Stearoyl-KPV-NH2] (Stearoyl-Lys-Pro-Val-NH2)
1000 (≈ 1.95 mM)	2000 (≈ 3.91 mM)	1000 (≈ 1.95 mM)	256 to 500	CCCCCCCCCCC(=O)N[C@@H](CCCCN)C(=O)N1CCC[C@@H]1C(=O)N[C@H](C(N)=O)[C@@H](C)O [HB2196, Undecoyl-KdPT-NH2] (Undecanoyl-Lys-[dP]-Thr-NH2)
500 (≈ 0.951 mM)	1000 (≈ 1.9 mM)	500 (≈ 0.951 mM)	128 (≈ 0.243 mM)	CCCCCCCCCCCC(=O)N[C@@H](CCCCN)C(=O)N1CCC[C@@H]1C(=O)N[C@H](C(N)=O)[C@@H](C)O [HB2197, Lauroyl-kdPT-NH2] (Lauroyl-Lys-[dP]-Thr-NH2)
16 (≈ 0.0275 mM)	64 (≈ 0.11 mM)	4 (≈ 0.00687 mM)	2 (≈ 0.00344 mM)	CCCCCCCCCCCCCCCC(=O)N[C@@H](CCCCN)C(=O)N1CCC[C@@H]1C(=O)N[C@H](C(N)=O)[C@@H](C)O [HB2200, Pal-K-dPT-NH2] (Palmitoyl-Lys-[dP]-Thr-NH2)
8 (≈ 0.0131 mM)	128 (≈ 0.21 mM)	16 (≈ 0.0262 mM)	1 to 2	CCCCCCCCCCCCCCCCCC(=O)N[C@@H](CCCCN)C(=O)N1CCC[C@@H]1C(=O)N[C@H](C(N)=O)[C@@H](C)O [HB2201, Stearoyl-K-dPT-NH2] (Stearoyl-Lys-[dP]-Thr-NH2)
>2000	>2000	>2000	>2000	CCCCCCCCCCCCCCCC(=O)N1CCC[C@H]1C(=O)N[C@H](C(N)=O)C(C)C [HB2205, Pal-PV-NH2] (Palmitoyl-Pro-Val-NH2)
>2000	>2000	>2000	256 to 1000	CCCCCCCCCCCCCCCC(=O)N[C@@H](CCCCN)C(=O)N[C@H](C(N)=O)[C@@H](C)O [HB2236, Pal-KT-NH2]
>2000	>2000	>2000	128 to 256	CCCCCCCCCCCCCCCC(=O)N[C@@H](CCCCN)C(=O)N[C@@H](C(N)=O)[C@H](C)O [HB2237, Pal-K-dT-NH2]
16 (≈ 0.0313 mM)	2 (≈ 0.00391 mM)	4 (≈ 0.00782 mM)		CCCCCCCCCCCCCCCC(=O)N[C@@H](CCCCN)C(=O)N[C@@H](CCCCN)C(N)=O [HB2238, Pal-KK-NH2]
>2000	>2000	>2000	>2000	CCCCCCCCCCCCCCCC(=O)N[C@@H](CCCCN)C(=O)N[C@H](C(N)=O)C(C)C [HB2239, Pal-KV-NH2] (Palmitoyl-Lys-Val-NH2)
>2000	>2000	1000 (≈ 2.12 mM)	128 (≈ 0.272 mM)	CCCCCCCCCCCCCCCC(=O)N[C@@H](CCCCN)C(=O)N[C@@H](CO)C(N)=O [HB2245, Pal-KS-NH2]
>2000	>2000	>2000	>2000	CCCCCCCCCCCCCCCC(=O)N[C@@H](CCCCN)C(=O)N[C@@H](Cc1ccc(O)cc1)C(N)=O [HB2247, Pal-KY-NH2]
>2000	>2000	>2000		CCCCCCCCCCCCCCCC(=O)N[C@@H](CCCCN)C(=O)N[C@@H](CC(=O)O)C(N)=O [HB2252, Pal-KD-NH2] (Palmitoyl-Lys-Asp-NH2)

More lines, now with the values behind:

Compound	MIC C. albicans (C. albicans 105) [µg/mL]	MIC E. coli (E. coli UB1005) [µg/mL]	MIC S. aureus (S. aureus SAP0017 (MRSA)) [µg/mL]	MIC P. acnes (P. acnes) [µg/mL]
CCCCCCCCCC(=O)N[C@@H](CCCCN)C(=O)N1CCC[C@@H]1C(=O)N[C@H](C(N)=O)[C@@H](C)O [HB2179, Dec-K-dPT-NH2] (Decanoyl-Lys-[dP]-Thr-NH2)	>2000	>2000	>2000	>2000
CCCCCCCCCC(=O)N[C@@H](CCCCN)C(=O)N1CCC[C@H]1C(=O)N[C@H](C(N)=O)C(C)C [HB2181, Dec-KPV-NH2] (Decanoyl-Lys-Pro-Val-NH2)	>2000	>2000	>2000	1000 (≈ 2.02 mM)
CCCCCCCCCCC(=O)N[C@@H](CCCCN)C(=O)N1CCC[C@H]1C(=O)N[C@H](C(N)=O)C(C)C [HB2189, Undecoyl-KPV-NH2] (Undecanoyl-Lys-Pro-Val-NH2)	>2000	2000 (≈ 3.92 mM)	1000 (≈ 1.96 mM)	256 to 500
CCCCCCCCCCCC(=O)N[C@@H](CCCCN)C(=O)N1CCC[C@H]1C(=O)N[C@H](C(N)=O)C(C)C [HB2190, Lauroyl-KPV-NH2] (Lauroyl-Lys-Pro-Val-NH2)	>2000	250 (≈ 0.477 mM)	250 (≈ 0.477 mM)	64 (≈ 0.122 mM)
CCCCCCCCCCCCCC(=O)N[C@@H](CCCCN)C(=O)N1CCC[C@H]1C(=O)N[C@H](C(N)=O)C(C)C [HB2191, Myristoyl-KPV-NH2] (Myristoyl-Lys-Pro-Val-NH2)	250 (≈ 0.453 mM)	500 (≈ 0.906 mM)	250 (≈ 0.453 mM)	16 (≈ 0.029 mM)
CCCCCCCC(=O)N[C@@H](CCCCN)C(=O)N1CCC[C@@H]1C(=O)N[C@H](C(N)=O)[C@@H](C)O [HB2195, Octanoyl-KdPT-NH2] (Octanoyl-Lys-[dP]-Thr-NH2)	>2000	>2000	>2000	>2000
CCCCCCCCCCCCCC(=O)N[C@@H](CCCCN)C(=O)N1CCC[C@@H]1C(=O)N[C@H](C(N)=O)[C@@H](C)O [HB2198, Myristoyl-KdPT-NH2] (Myristoyl-Lys-[dP]-Thr-NH2)	64 (≈ 0.116 mM)	128 (≈ 0.231 mM)	64 (≈ 0.116 mM)	8 to 16
CCCCCCCCCCCCCCC(=O)N[C@@H](CCCCN)C(=O)N1CCC[C@@H]1C(=O)N[C@H](C(N)=O)[C@@H](C)O [HB2199, Pentadecanoyl-KdPT-NH2]	32 (≈ 0.0564 mM)	64 (≈ 0.113 mM)	32 (≈ 0.0564 mM)	2 to 4
CCCCCCCCCCCCCCCC(=O)N1CCC[C@@H]1C(=O)N[C@@H](CO)C(N)=O [HB2207, Pal-dPS-NH2] (Palmitoyl-[dP]-Ser-NH2)	>2000	>2000	>2000	32 (≈ 0.0728 mM)
CCCCCCCCCCCCCCCC(=O)N[C@@H](CCCCN)C(=O)N[C@@H](C)C(N)=O [HB2240, Pal-KA-NH2] (Palmitoyl-Lys-Ala-NH2)	>2000	>2000	>2000	>2000
CCCCCCCCCCCCCCCC(=O)N[C@@H](CCCCN)C(=O)N[C@@H](Cc1ccccc1)C(N)=O [HB2241, Pal-KF-NH2]	>2000	>2000	>2000	>2000
